Test results: publication PMC10674160, “Synthesis and Preclinical Evaluation of Radiolabeled [^103Ru]BOLD-100” (Pharmaceutics, 2023)

Test: Tissue distribution in CT26 allograft bearing Balb/c mice (ICP-MS for 3a, gamma counting for 3b)
Format: in vivo
Details: 30 mg/kg i.v.
Description: UV/Vis spectra were recorded on a Hitachi U-2000 Dual Beam spectrophotometer. Sample activities were measured on an ISOMED 2010 dose calibrator. For centrifugation during synthesis, a Fisherbrand^TM Mini-Centrifuge from Fisher Scientific was used. Radioactive organ samples were measured on Perkin Elmer Wizard^2 gamma counter. Non-radioactive organ samples were prepared, and the ruthenium content was quantified with ICP-MS. The exact procedure including instrument information can be found in the Supplementary Materials.
For the evaluation of organ distribution, CT26 cells (5 × 10^5 in serum-free medium) were injected subcutaneously into the right flank of Balb/c mice. Animals were controlled for distress development every day and tumor size was assessed regularly using caliper measurements. CT26 cells were inoculated 10 days prior to drug application. Tumor volume was calculated using the formula: (length × width^2); the tumors reached a size of about 500 mm^3. Animals were treated once intravenously (i.v.) via tail-vein injection with 3a or 3b at a dose of 30 mg/kg (dissolved in 0.9% NaCl, 0.6 mg/100 µL/20 g mouse) and a specific activity of 0.64–1.36 MBq/mg for compound 3b. The mice were anesthetized and sacrificed by cervical fracture 4, 24, 48 and 72 h p.i., with n ≥ 2 (3a) and n ≥ 3 (3b) for each time point. Samples of tumor, liver, kidney, muscle, heart, lung, spleen, pancreas, stomach, colon, small intestine, brain, bone, and blood were collected from each mouse. After clotting at RT, serum was isolated from the collected blood samples by centrifugation at 3000 rpm for 10 min twice and stored together with the collected tissue samples at −20 °C. Finally, the ruthenium content was quantified by ICP-MS in the case of the non-radioactive BOLD-100 (3a) and via gamma counting for [^103Ru]BOLD-100 (3b).
An Agilent 7800 ICP-MS (Agilent Technologies, Tokyo, Japan) was being employed, which was equipped with an Agilent SPS 4 autosampler (Agilent Technologies, Tokyo, Japan) and a MicroMist nebulizer at a sample uptake rate of approx. 0.2 mL/min. The Agilent MassHunter software package (Workstation Software, Version C.01.04, 2018) was used for data evaluation. The instrumental parameters […]
Reference source not found..
Ta ble S1: Instrumental parameters for the ICP-MS measurements […]
Spray chamber Scott double-pass
Spraying chamber temp. 2°C
Nebulizer gas 1.06 L min−1
Auxiliary gas 0.90 L min−1
The instrumental limit of quantification (LOQ) was determined at the start of the measurement by […]
LOQ = blank average + 10*STD
Blank corrections were performed for all the samples. Robustness was ensured by tuning the ICP-MS on a daily basis, by using an internal standard (115In) and measuring calibration standards for each […]
Ultrapure water (18.2 MΩ cm, ELGA Water purification system, Purelab Ultra MK 2, UK or 18.2 MΩ cm, Milli-Q Advantage, Darmstadt, Germany), HNO3 (≥69%, Rotipuran Supra, Carl Roth, Karlsruhe, Germany) and H2O2 (30%, Suprapur, Merck, Darmstadt, Germany) were used for all dilutions for ICP-MS measurements. The Ru standard solution was purchased from Labkings (Hilversum, The Netherlands).
For the digestion, approx. 25–50 mg of each organ sample were weighed into PFA-tubes, with 2 mL HNO3 and 100 µL H2O2 being added. The solutions were then placed on a hot plate and heated up for 6 hours using a temperature program with a maximum temperature of 200 °C. After cooling down, the liquids were transferred directly to 15 mL tubes with the remaining solution being removed from the PFA tubes by washing twice with 4 mL ultrapure water, resulting in a final volume of about 10 mL. By writing down the total weight of the resulting liquid, the dilution factor could be calculated.

[Cl][Ru-]([Cl])([Cl])[Cl].[Na+].c1ccc2[nH]ncc2c1.c1ccc2[nH]ncc2c1 [3a, sodium trans-[tetrachloridobis(indazole)ruthenate(III)]]
%ID/g tissue Blood cells (4 h p.i.): 10.70 ± 4.38 %ID/g tissue
%ID/g tissue Blood cells (24 h p.i.): 3.43 ± 0.83 %ID/g tissue
%ID/g tissue Blood cells (48 h p.i.): 1.96 ± 1.09 %ID/g tissue
%ID/g tissue Blood cells (72 h p.i.): 0.67 ± 0.86 %ID/g tissue
%ID/g tissue Bones (4 h p.i.): 1.08 ± 0.25 %ID/g tissue
%ID/g tissue Bones (24 h p.i.): 0.79 ± 0.20 %ID/g tissue
%ID/g tissue Bones (48 h p.i.): 0.88 ± 0.16 %ID/g tissue
%ID/g tissue Bones (72 h p.i.): 1.12 ± 0.35 %ID/g tissue
%ID/g tissue Brain (4 h p.i.): 0.36 ± 0.19 %ID/g tissue
%ID/g tissue Brain (24 h p.i.): 0.15 ± 0.07 %ID/g tissue
%ID/g tissue Brain (48 h p.i.): 0.10 ± 0.02 %ID/g tissue
%ID/g tissue Brain (72 h p.i.): 0.11 ± 0.00 %ID/g tissue
%ID/g tissue Colon (4 h p.i.): 3.53 ± 1.27 %ID/g tissue
%ID/g tissue Colon (24 h p.i.): 2.58 ± 0.13 %ID/g tissue
%ID/g tissue Colon (48 h p.i.): 1.68 ± 0.58 %ID/g tissue
%ID/g tissue Colon (72 h p.i.): 1.63 ± 0.00 %ID/g tissue
%ID/g tissue Heart (4 h p.i.): 5.81 ± 0.94 %ID/g tissue
%ID/g tissue Heart (24 h p.i.): 3.66 ± 1.31 %ID/g tissue
%ID/g tissue Heart (48 h p.i.): 3.28 ± 0.63 %ID/g tissue
%ID/g tissue Heart (72 h p.i.): 2.37 ± 1.97 %ID/g tissue
%ID/g tissue Kidneys (4 h p.i.): 11.58 ± 1.35 %ID/g tissue
%ID/g tissue Kidneys (24 h p.i.): 10.02 ± 1.09 %ID/g tissue
%ID/g tissue Kidneys (48 h p.i.): 7.34 ± 4.13 %ID/g tissue
%ID/g tissue Kidneys (72 h p.i.): 6.78 ± 0.18 %ID/g tissue
%ID/g tissue Liver (4 h p.i.): 12.90 ± 1.14 %ID/g tissue
%ID/g tissue Liver (24 h p.i.): 9.84 ± 0.60 %ID/g tissue
%ID/g tissue Liver (48 h p.i.): 8.96 ± 3.11 %ID/g tissue
%ID/g tissue Liver (72 h p.i.): 7.90 ± 0.35 %ID/g tissue
%ID/g tissue Lung (4 h p.i.): 8.24 ± 2.06 %ID/g tissue
%ID/g tissue Lung (24 h p.i.): 4.84 ± 0.53 %ID/g tissue
%ID/g tissue Lung (48 h p.i.): 4.64 ± 0.94 %ID/g tissue
%ID/g tissue Lung (72 h p.i.): 4.41 ± 1.94 %ID/g tissue
%ID/g tissue Muscle (4 h p.i.): 0.82 ± 0.18 %ID/g tissue
%ID/g tissue Muscle (24 h p.i.): 0.99 ± 0.28 %ID/g tissue
%ID/g tissue Muscle (48 h p.i.): 0.66 ± 0.16 %ID/g tissue
%ID/g tissue Muscle (72 h p.i.): 0.84 ± 0.02 %ID/g tissue
%ID/g tissue Pancreas (4 h p.i.): 5.14 ± 2.01 %ID/g tissue
%ID/g tissue Pancreas (24 h p.i.): 2.81 ± 0.68 %ID/g tissue
%ID/g tissue Pancreas (48 h p.i.): 3.18 ± 0.85 %ID/g tissue
%ID/g tissue Pancreas (72 h p.i.): 2.19 ± 0.01 %ID/g tissue
%ID/g tissue Serum (4 h p.i.): 24.85 ± 0.85 %ID/g tissue
%ID/g tissue Serum (24 h p.i.): 9.26 ± 1.03 %ID/g tissue
%ID/g tissue Serum (48 h p.i.): 6.29 ± 1.02 %ID/g tissue
%ID/g tissue Serum (72 h p.i.): 1.41 ± 1.56 %ID/g tissue
%ID/g tissue Small intestine (4 h p.i.): 6.38 ± 3.36 %ID/g tissue
%ID/g tissue Small intestine (24 h p.i.): 3.78 ± 0.51 %ID/g tissue
%ID/g tissue Small intestine (48 h p.i.): 3.28 ± 2.02 %ID/g tissue
%ID/g tissue Spleen (4 h p.i.): 4.23 ± 0.68 %ID/g tissue
%ID/g tissue Spleen (24 h p.i.): 4.02 ± 0.71 %ID/g tissue
%ID/g tissue Spleen (48 h p.i.): 4.59 ± 1.57 %ID/g tissue
%ID/g tissue Spleen (72 h p.i.): 3.92 ± 1.93 %ID/g tissue
%ID/g tissue Stomach (4 h p.i.): 2.57 ± 0.29 %ID/g tissue
%ID/g tissue Stomach (24 h p.i.): 2.13 ± 0.17 %ID/g tissue
%ID/g tissue Stomach (48 h p.i.): 1.76 ± 0.77 %ID/g tissue
%ID/g tissue Stomach (72 h p.i.): 1.40 ± 0.01 %ID/g tissue
%ID/g tissue Tumor (4 h p.i.): 4.43 ± 1.20 %ID/g tissue
%ID/g tissue Tumor (24 h p.i.): 8.34 ± 1.36 %ID/g tissue
%ID/g tissue Tumor (48 h p.i.): 7.64 ± 1.78 %ID/g tissue
%ID/g tissue Tumor (72 h p.i.): 5.32 ± 1.22 %ID/g tissue
